{
  "source": "patent US20040170622A1",
  "about": "“Methods and compositions for modulating XBP-1 activity” (President and Fellows of Harvard College, priority 2002, published 2004)",
  "type_in_all_cases": "cell-based",
  "key": {"[1]": {"tested_on": "IRE1α-mediated XBP-1 mRNA splicing", "experiment": "XBP-1 mRNA level and splicing in J558 cells (Northern blot, RT-PCR)", "details": "J558, Tm 4 hrs; MG-132 10 μM, PS-341 10 μM, ZL3VS 50 μM, AdaAhxL3VS 50 μM", "procedure": "(A) XBP-1 mRNA levels in ER stressed J558 cells treated with Tm for 4 hrs in the absence or presence of MG-132. Cells were pretreated with MG-132 for 1 hr before adding Tm. XBP-1 mRNA levels were determined by Northern blot analysis. […] (C) Effect of a panel of PIs on XBP-1 splicing. Cells were treated with Tm for 4 hrs in the absence or presence of MG-132 (10 μM), PS-341 (10 μM), Lactacystin (10 μM), ZL3VS (50 μM) or AdaAhxL3VS (50 μM), and XBP-1 mRNA splicing measured by RT-PCR analysis. (D) IRE-1α phosphorylation in NIH3T3 cells were treated with Tm as indicated after 2 hrs of pretreatment with MG-132 (10 μM).\nTotal RNA was prepared by using Trizol reagent, electrophoresed on 1.2% agarose, 6% formaldehyde gels and then transferred onto Genescreen Plus membrane, (NEN, Boston, Mass.). […] Probes for ERdj4 and p58^IPK were generated from cDNA excised from EST clones (ATCC, Manassas, Va.) using appropriate restriction enzymes (ERdj4, IMAGE: 1920927; p58^IPK, IMAGE:2646147)."}, "XBP-1 protein": {"tested_on": "XBP-1 protein", "experiment": "XBP-1 protein species in MOPC315 and MM.1S myeloma cells treated with proteasome inhibitors (Western blot)", "details": "mouse myeloma MOPC315 and human myeloma MM.1S", "procedure": "A variety of reversible and irreversible inhibitors that inhibit degradation of proteins by the ubiquitin-proteasome pathway have recently been identified. Proteasome inhibitors MG132 and PS341 block the rapid degradation of ubiquitinated proteins such as unspliced, but not spliced XBP-1. Myeloma cells express primarily spliced XBP-1 protein as expected. […] In this experiment lysates from MOPC315 cells were untreated or treated for 6 hours with 5 ug/ml of tunicamycin or 20 uM of MG-132 and were analyzed for the presence of XBP-1 using XBP-1 antibody. The two forms of XBP-1 were distinguished by their molecular weight.\nIn the presence of proteasome inhibitors, unspliced XBP-1 protein accumulates in the cell and is present at higher levels than the spliced protein. Lysates from Mm. 1S cells were untreated or treated for 1, 4, or 8 hours with 20 uM of PS-341 and were analyzed by western blotting with anti-XBP-1 antibody. Because unspliced, but not spliced XBP-1 is stabilized, the ratio of unspliced to spliced XBP-1 increases in cells treated with proteasome inhibitors."}, "[2]": {"tested_on": "XBP-1u and XBP-1s proteins", "experiment": "XBP-1u and XBP-1s protein levels in J558 cells (Western blot)", "details": "J558 cells, 16 hrs", "procedure": "(§1) (A) BiP and CHOP induction was examined by northern blot analysis after treating NIH3T3 or J558 myeloma cells with either MG-132 (20 μM), Tm (10 μg/ml) or both. Cells were pretreated with MG-132 for 1 hr and then further treated with Tm for 4 hrs. Ethidium bromide staining of the gel is shown at the bottom. (B) Inhibition of caspase-12 processing by proteasome inhibitors. Processing of full-length caspase-12 was examined by Western blotting in J558 myeloma cells treated with thapsigargin (1 μM) or PIs (20 μM) during the indicated time periods. (C) Alteration in the ratio of XBP-1 protein species in J558 cells were treated with increasing amounts of MG-132 for 16 hrs. Cells undergoing apoptosis were counted by Annexin V staining. (D) Time course of the XBP-1s to XBP-1u shift. Cells were treated with MG-132 (1 μM) for the indicated times and XBP-1u and spliced protein levels and cell death determined. (E) Alteration in the ratio of XBP-1 species in the MM.1s human myeloma line. Cells were treated with PS-341 (8 nM) in a time course analysis and XBP-1 protein species quantified.\nCells were lysed in RIPA buffer (50 mM Tris pH 7.4, 150 mM NaCl, 1 mM EDTA, 1% Triton X-100, 1% sodium deoxycholate, 0.1% SDS) and lysates subjected to SDS-PAGE and transferred to Hybond P membrane (Amersham-Pharmacia, Piscataway, N.J.). […] HeLa cells were cotransfected with XBP-1u and His-tagged ubiquitin expression plasmids (pMT 107, D. Bohmann, EMBL, Germany) by using the Lipofectamine-2000 reagent (Invitrogen, Carlsbad, Calif.). […] Degradation rates of XBP-1u and XBP-1s proteins were determined by pulse labeling J558 cells with ^35S Met/Cys for 1 hr and chasing for the indicated times."}, "XBP-1s and XBP-1u": {"tested_on": "XBP-1s and XBP-1u", "experiment": "Ratio of XBP-1 species in MM.1s line and primary MM cells", "details": "human MM cell line MM.1s and primary MM cells from patient bone marrow", "procedure": "as §1"}, "J558 myeloma cells": {"tested_on": "J558 myeloma cells", "experiment": "Apoptosis of J558 myeloma cells (Annexin V staining)", "details": "agent alone", "procedure": "as §1\n(A) Synergistic effect of Tm and MG-132 on apoptosis. Annexin V positive cells were counted after treating J558 cells for 18 hrs with suboptimal concentrations of Tm and MG-132 as indicated. (B) J558-iXBP cells were generated by retroviral transduction of J558 cells with the U6 promoter based XBP-1 RNAi vector. (C) XBP-1 dependent gene expression in J558 cells that express control GFP, dn-XBP or iXBP-1 treated with Tm. Generation of dn-XBP-1 J558 cells by infection with a retrovirus containing dn-XBP cDNA inserted into the GFP-RV vector (N. N. lwakoshi et al., Nature Immunology 4, 321-329 (2003)). ERdj4, p58^IPK, BiP and CHOP gene expression were examined by Northern blot analysis. (D) Increased apoptosis in iXBP-1 and dn-XBP-1 expressing J558 cells. Cells were treated with the indicated amounts of Tm for 48 hrs and dead cells counted after Annexin V staining.\nCells were stained with annexin V-PE (BD PharMingen, San Jose, Calif.) as recommended and analyzed on a FACScan flow cytometer (Becton Dickinson, San Jose, Calif.)."}},
  "data": [
    {"smiles": "CC(C)C[C@H](NC(=O)[C@H](Cc1ccccc1)NC(=O)c1cnccn1)B(O)O", "note": "[PS-341]", "values": [
      {"measurement": "effect on Tm-induced XBP-1 mRNA splicing", "setting": "[1]", "result": "suppressed XBP-1 mRNA splicing as efficiently as MG-132"},
      {"measurement": "amount of unspliced XBP-1 protein", "setting": "XBP-1 protein", "result": "dramatic increase in the amount of unspliced XBP-1 protein"},
      {"measurement": "levels of active spliced XBP-1 protein", "setting": "XBP-1 protein", "result": "concomitant decrease in levels of the active spliced XBP-1 protein"},
      {"measurement": "XBP-1u accumulation and XBP-1s decrease", "setting": "[2]", "result": "striking accumulation of XBP-1 u and a concomitant decrease in XBP-1s proteins"},
      {"measurement": "shift in the ratio of XBP-1s to XBP-1u", "setting": "XBP-1s and XBP-1u", "result": "induced the same marked shift in the ratio of XBP-1s to XBP-1u"},
      {"measurement": "apoptosis in J558 cells", "setting": "J558 myeloma cells", "result": "induced apoptosis in J558 cells"}
    ]}
  ]
}
